From publication PMC7217877, “N-AS-triggered SPMs are direct regulators of microglia in a model of Alzheimer’s disease” (Nature Communications, 2020)
Values joined by “and” are separate entries in the source; they are usually repeats but may differ in a detail not shown here. Equal entries are not always repeated.

Tests used:
APP/PS1 mice = experiment: fear conditioning (Supplementary Fig 7e); assay type: in vivo, mouse; details: N-AS vs vehicle APP/PS1
Method: Transgenic mouse lines over-expressing the hAPP695swe (APP) and presenilin-1M146V (PS1) mutations were originated from GlaxoSmithKline (Harlow, UK)[32] and maintained as described previously. We purchased 5×FAD mice from Jackson Labs (Stock number. 34840-JAX). Because APP/PS1 and 5xFAD mice show sex differences in disease progression, we used only male mice. To examine possible therapeutic effect of N-AS and aspirin in APP/PS1 mice, the N-AS (30 mg kg^−1, Sigma-Aldrich, 01912) was injected daily s.c. for 8 weeks to 7-months-old APP/PS1 mice until the age of 9 months, and aspirin (2 mg kg^−1, Sigma-Aldrich, A5376)[33] was administrated orally to 7-months-old APP/PS1 mice for 8 weeks. […] Block randomization method was used to allocate the animals to experimental groups. To eliminate the bias, we were blinded in experimental progress such as data collection and data analysis. Mice were housed at temperature of 22 °C and a 12 h day/12 h night cycle with free access to tap water and food pellets. All protocols were approved by the Kyungpook National University Institutional Animal Care and Use Committee. […] Freezing was analyzed for 5 min. […] Overall activity in the box was measured, and the amount of time and distance traveled in the center arena was noted. […] The total number of transitions, latency to first enter the light chamber, distance traveled, and time spent in each chamber were recorded.

[1] = target: T1, COX2 of WT and APP/PS1 mice (Mus musculus, UniProt Q05769); experiment: in vivo COX2 acetylation in microglia and neuron after oral [14C] N-AS (Supplementary Fig 4d)
T1 construct: from tissue; host or cells: microglia and neurons isolated from brain of 9-months-old WT and APP/PS1 mice
T1 sequence (Q05769 18-604): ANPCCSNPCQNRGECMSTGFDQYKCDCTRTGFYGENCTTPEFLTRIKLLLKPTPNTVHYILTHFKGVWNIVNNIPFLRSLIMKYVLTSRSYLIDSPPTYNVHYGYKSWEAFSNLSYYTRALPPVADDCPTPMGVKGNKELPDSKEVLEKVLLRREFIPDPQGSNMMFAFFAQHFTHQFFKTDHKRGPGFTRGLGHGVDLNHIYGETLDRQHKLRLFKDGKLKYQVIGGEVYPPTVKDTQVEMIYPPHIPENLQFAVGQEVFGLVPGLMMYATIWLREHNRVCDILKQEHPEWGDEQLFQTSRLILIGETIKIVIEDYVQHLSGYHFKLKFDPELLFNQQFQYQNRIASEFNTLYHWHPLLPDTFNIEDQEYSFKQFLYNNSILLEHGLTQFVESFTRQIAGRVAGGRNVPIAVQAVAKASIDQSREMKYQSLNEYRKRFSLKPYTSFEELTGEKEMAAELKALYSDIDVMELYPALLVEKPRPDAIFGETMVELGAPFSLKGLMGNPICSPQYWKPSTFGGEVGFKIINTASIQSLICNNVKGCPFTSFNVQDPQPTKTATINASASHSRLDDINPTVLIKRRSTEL
Method: Acetylation assays were performed according to previously described procedures with minor modifications. […] To confirm the N-AS-mediated COX2 acetylation, 10 μg COX2 (WT or mutants) was used incubated with [^14C] N-AS (2 μCi, ARC UK Ltd, ARC-1024) at 37 °C for 2 h. [^14C] aspirin (2 μCi, ARC UK Ltd, ARC-0473) was conducted as the positive control. The reactions were terminated by placing the reaction tubes in ice for 5 min. To evaluate in vivo neuronal and microglial COX2 acetylation, 10 μCi [^14C] N-AS was orally administrated to 9-months-old WT and APP/PS1 mice. After 1 h, neuron and microglia were isolated and sonicated in culture media. To immunoprecipitate acetylated COX2, the sample was incubated with COX2 antibody (Abcam, ab15191) at 4 °C for 24 h and precipitated by adding 50 μl of protein-A sepharose (GE Healthcare). Acetylated COX2 proteins bound to the beads were analyzed using a Tri-Carb 3110TR liquid scintillation counter (Perkin-Elmer).

- in vivo COX2 acetylation after oral [14C] N-AS (sFig 4d) ([1]; Microglia, WT mice (set to 100)): 100
- in vivo COX2 acetylation after oral [14C] N-AS (sFig 4d) ([1]; Neuron, WT mice (set to 100)): 100
Structure (SMILES): CCCCCCCCCCCCC/C=C/[C@@H](O)[C@H](CO)NC(C)=O [N-AS, N-((2S,3R,E)-1,3-Dihydroxyoctadec-4-en-2-yl)acetamide]
- memory formation, fear conditioning (APP/PS1 mice): largely protected from this defect
- in vivo COX2 acetylation after oral [14C] N-AS (sFig 4d) ([1]; Microglia, APP/PS1 mice, relative to WT = 100, listed as [14C] N-AS): 223.529 and 255.556 and 247.368 and 238.095 and 191.304 and 233.333
- in vivo COX2 acetylation after oral [14C] N-AS (sFig 4d) ([1]; Neuron, APP/PS1 mice, relative to WT = 100, listed as [14C] N-AS): 104 and 95.8333 and 96.1539 and 114.286 and 112.5
- [14C] radioreactivity of COX2 from microglia ([1]; oral [14C] N-AS, APP/PS1 vs WT microglia): more avidly bound to and acetylated COX2 of APP/PS1 microglia
- [14C] radioreactivity of COX2 from neurons ([1]; oral [14C] N-AS, APP/PS1 vs WT neurons): no significant differences were observed in neurons
